Article PMC5129534, “Selective Enzymatic Transformation to Aldehydes in vivo by Fungal Carboxylate Reductase from Neurospora crassa” (Advanced Synthesis & Catalysis, 2016)

Legend:
NcCAR [1] = biological target: T1, NcCAR (Neurospora crassa, UniProt Q7RW48); test: spectrophotometric NADPH depletion assay, […] nm, initial rates; assay type: biochemical; details: apparent, ATP, MgCl2, MES buffer pH 6.0, 28 °C, 5% v/v DMSO
T1 construct: gene NCU05000; full length, codon-optimized gene, N-terminal TEV-cleavable His-tag (removed for kinetics), pETDUET1, co-expressed with E. coli phosphopantetheinyl transferase (CAQ31055.1) in E. coli BL21 (DE3) Star; 120 kDa

NcCAR [2] = biological target: T1, NcCAR; test: time-resolved […] NMR of cinnamic acid reduction; relief of inhibition by pyrophosphatase; assay type: biochemical; details: co-product inhibition, inferred, ATP, NADPH, MgCl2, Tris-HCl pH 7.5
O=C(O)c1ccc2c(c1)OCO2 = test: purified protein; assay type: biochemical, Neurospora crassa; details: apparent, ATP, NADPH, MgCl2, MES buffer pH 6.0, 28 °C, substrate in water with equimolar KOH

T1 sequence (Q7RW48 whole entry): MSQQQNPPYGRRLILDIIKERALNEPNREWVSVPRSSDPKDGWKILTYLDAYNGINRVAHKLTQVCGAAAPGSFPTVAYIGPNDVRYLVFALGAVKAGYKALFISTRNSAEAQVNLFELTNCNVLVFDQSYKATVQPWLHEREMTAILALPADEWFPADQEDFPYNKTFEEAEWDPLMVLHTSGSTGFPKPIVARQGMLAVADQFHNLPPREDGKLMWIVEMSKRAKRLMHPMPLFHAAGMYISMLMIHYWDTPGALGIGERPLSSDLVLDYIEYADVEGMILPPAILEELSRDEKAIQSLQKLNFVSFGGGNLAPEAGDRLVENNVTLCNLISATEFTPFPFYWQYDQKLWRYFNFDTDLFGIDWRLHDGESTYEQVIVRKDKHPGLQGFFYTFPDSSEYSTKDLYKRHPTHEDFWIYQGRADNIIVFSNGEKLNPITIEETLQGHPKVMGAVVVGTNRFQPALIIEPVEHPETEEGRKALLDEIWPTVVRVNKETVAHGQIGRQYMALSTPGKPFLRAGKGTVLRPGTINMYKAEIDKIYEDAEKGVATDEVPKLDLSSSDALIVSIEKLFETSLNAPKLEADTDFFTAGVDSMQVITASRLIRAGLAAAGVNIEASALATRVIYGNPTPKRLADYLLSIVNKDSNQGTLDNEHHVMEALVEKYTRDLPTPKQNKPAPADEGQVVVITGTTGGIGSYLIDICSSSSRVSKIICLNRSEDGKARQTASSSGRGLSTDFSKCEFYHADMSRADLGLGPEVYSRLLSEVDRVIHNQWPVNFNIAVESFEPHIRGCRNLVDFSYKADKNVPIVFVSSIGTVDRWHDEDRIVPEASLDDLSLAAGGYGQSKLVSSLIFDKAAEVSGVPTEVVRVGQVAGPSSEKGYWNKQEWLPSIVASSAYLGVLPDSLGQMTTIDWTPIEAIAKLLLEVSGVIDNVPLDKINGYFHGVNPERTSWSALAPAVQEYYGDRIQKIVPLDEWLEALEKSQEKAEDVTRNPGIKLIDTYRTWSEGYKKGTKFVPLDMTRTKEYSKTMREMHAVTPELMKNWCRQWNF

Which Km (NcCAR [1]) does the source give for `O=C(O)/C=C/c1ccccc1` [1a, cinnamic acid] here?
Its Km is 445 ± 50 µM.

How did the “time-resolved 31P NMR of cinnamic acid reduction; relief of inhibition by pyroph” value (NcCAR [2]) turn out when `O=P(O)(O)OP(=O)(O)O` [pyrophosphate] was run?
Its value is “these results indicate the inhibition of NcCAR by the co‐product pyrophosphate”.

NcCAR (Neurospora crassa OR74A) was tested. Which Km (O=C(O)c1ccc2c(c1)OCO2) did it give?
Its Km is 173 ± 22 µM.

And the kcat (O=C(O)c1ccc2c(c1)OCO2)?
The kcat was 7.46 s⁻¹.
